Test results reported in US10947222B2, “Indole derivatives useful as inhibitors of diacylglyceride O-acyltransferase 2” (Merck Sharp & Dohme Corp., priority 2016, dated 2021).

Target: human DGAT2 (hDGAT2) (Homo sapiens (Human), UniProt Q96PD7)
Assay: DGAT2 enzymatic activity assay (triolein formation, LC/MS/MS)
Type: biochemical
Conditions: Sf-9 membrane prep expressing hDGAT2; 25 μM diolein, 10 μM oleoyl-CoA; triolein by LC/MS/MS
Procedure, shortened: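 Membranes from Sf-9 cells infected with untagged baculovirus hDGAT2 were incubated at rt in 100 mM Tris.Cl pH 7.0, 20 mM MgCl2, 5% ethanol with 25 μM diolein and 10 μM oleoyl-CoA (10 ng/μL membrane). Triolein was quantified by LC/MS/MS against internal standard; IC50 by 4-parameter sigmoidal fit.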

human DGAT2 (hDGAT2), sequence (Q96PD7 whole entry): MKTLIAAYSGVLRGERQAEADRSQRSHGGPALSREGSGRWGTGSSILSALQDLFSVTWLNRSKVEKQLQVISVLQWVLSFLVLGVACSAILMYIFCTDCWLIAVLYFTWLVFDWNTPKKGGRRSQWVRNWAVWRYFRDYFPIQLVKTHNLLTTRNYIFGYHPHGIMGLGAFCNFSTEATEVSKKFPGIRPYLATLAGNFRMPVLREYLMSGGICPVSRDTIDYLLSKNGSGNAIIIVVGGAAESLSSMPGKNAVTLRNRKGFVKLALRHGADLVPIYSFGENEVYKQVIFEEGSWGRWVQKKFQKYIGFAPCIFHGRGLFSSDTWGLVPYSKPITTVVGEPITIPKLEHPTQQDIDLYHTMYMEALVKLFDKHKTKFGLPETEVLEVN

Question: Which IC50 does the source give for CC1(NC(=O)c2ccc3c(-c4cccc(C5CC5)c4)cn(-c4ccc(F)cn4)c3c2)CCS(=O)(=O)C1 (single isomer, unassigned; enantiomer b) [Example 12-B, 3-(3-cyclopropylphenyl)-1-(5-fluoropyridin-2-yl)-N-(3-methyl-1,1-dioxidotetrahydrothiophen-3-yl)-1H-indole-6-carboxamide (enantiomer B)] here?
Answer: 0.73 nM

Question: For CC1(NC(=O)c2ccc3c(-c4ccccc4Cl)cn(-c4ccc(F)cn4)c3c2)CCS(=O)(=O)C1 (single isomer, unassigned; enantiomer b) [Example 14-B, 3-(2-chlorophenyl)-1-(5-fluoropyridin-2-yl)-N-(3-methyl-1,1-dioxidotetrahydrothiophen-3-yl)-1H-indole-6-carboxamide (Enantiomer B, Slow)], which IC50 is on record?
Answer: 9.8 nM

Question: Which IC50 does the source give for CC1(NC(=O)c2ccc3c(-c4ccccc4Cl)cn(-c4ncc(F)cn4)c3c2)CCS(=O)(=O)C1 (single isomer, unassigned; enantiomer b) [Example 15-B, 3-(2-chlorophenyl)-1-(5-fluoropyrimidin-2-yl)-N-(3-methyl-1,1-dioxidotetrahydrothiophen-3-yl)-1H-indole-6-carboxamide (enantiomer B, slow)] here?
Answer: 28 nM

Question: How did the IC50 turn out when CC1(NC(=O)c2ccc3c(-c4cccc(OC(F)F)c4)cn(-c4ncc(F)cn4)c3c2)CCS(=O)(=O)C1 (single isomer, unassigned; enantiomer b) [Example 18-B, 3-(3-(difluoromethoxy)phenyl)-1-(5-fluoropyrimidin-2-yl)-N-(3-methyl-1,1-dioxidotetrahydrothiophen-3-yl)-1H-indole-6-carboxamide (enantiomer B)] was run?
Answer: 0.91 nM

Question: With CC(C)(CN1CCOCC1)NC(=O)c1ccc2c(-c3ccccc3Cl)cn(-c3ccc(F)cc3)c2c1 [Example 4, 3-(2-chlorophenyl)-1-(4-fluorophenyl)-N-(2-methyl-1-morpholinopropan-2-yl)-1H-indole-6-carboxamide] as the compound, how does the IC50 read?
Answer: 629 nM

Question: Which IC50 does the source give for O=C(N[C@H](CO)c1ccc(C(F)(F)F)nc1)c1ccc2c(-c3ccccc3Cl)cn(-c3ccc(F)cc3)c2c1 [Example 5, (S)-3-(2-chlorophenyl)-1-(4-fluorophenyl)-N-(2-hydroxy-1-(6-(trifluoromethyl)pyridin-3-yl)ethyl)-1H-indole-6-carboxamide] here?
Answer: 190 nM

Question: With C[C@H](NC(=O)c1ccc2c(-c3ccccc3Cl)cn(-c3ccc(F)cc3)c2c1)c1ccc(C(F)(F)F)nc1 [Example 6, (S)-3-(2-chlorophenyl)-1-(4-fluorophenyl)-N-(1-(6-(trifluoromethyl)pyridin-3-yl)ethyl)-1H-indole-6-carboxamide] as the compound, how does the IC50 read?
Answer: 476 nM

Question: C[C@@H](NC(=O)c1ccc2c(-c3ccccc3Cl)cn(-c3ccc(F)cc3)c2c1)c1ccc(C(F)(F)F)nc1 [Example 7, (R)-3-(2-chlorophenyl)-1-(4-fluorophenyl)-N-(1-(6-(trifluoromethyl)pyridin-3-yl)ethyl)-1H-indole-6-carboxamide] was tested. Which IC50 did it give?
Answer: 671 nM
